The record followed here is patent US10004732B2 (Novartis AG, priority 2014, dated 2018).

Broadly, the IC50 is the midpoint of a concentration-inhibition curve.

Counter-ions that a name gives are not always drawn. Like-named read-outs stand apart in the source and are kept apart here.

Assay [1] addresses PI 3-kinase gamma (Homo sapiens, UniProt P48736). Kind of assay: TR-FRET Adapta assay, assay E. The class given is biochemical. The conditions noted are these: read-out: Assay E PI3Kγ IC50. For orientation: TR-FRET usually uses a lanthanide donor and a delayed reading to cut background.
Assay [2] concerns the target PI 4-kinase beta (Homo sapiens, UniProt Q9UBF8). Put plainly: Kinase Glo Luminescent Kinase Assay (Kglo), assay D. The class given is biochemical. Conditions: read-out: Assay D PI4Kβ IC50. Background: Kinase-Glo reads ATP consumption through a luciferase reaction.
Assay [3] deals with mTOR (Homo sapiens, UniProt P42345). Kind of assay: Lanthascreen kinase binding assay, assay G. Conditions: read-out: Assay G mTOR IC50.
Experimental: Lanthascreen™ Kinase Binding Assay for mTOR (G)
Binding of an inhibitor to the kinase competes for binding with the tracer, resulting in a loss of FRET.
50 nL of compound dilutions were dispensed onto white 384-well small volume polystyrene plate.
The target in assay [4] is Vps34 (Homo sapiens, UniProt Q8NEB9). Put plainly: Kinase Glo Luminescent Kinase Assay (Kglo), assay C. It counts as biochemical. Conditions: read-out: Assay C VPS34 IC50.
For assay [5], the target named is PI 3-kinase alpha (Homo sapiens, UniProt P42336). Kind of assay: Kinase Glo Luminescent Kinase Assay (Kglo), assay A. It counts as biochemical. The conditions noted are these: read-out: Assay A PI3Kα IC50.
For assay [6], the target named is PI 3-kinase delta (Homo sapiens, UniProt O00329). Put plainly: TR-FRET Adapta assay, assay F.
Assay [7] has as its target PI 3-kinase beta (Homo sapiens, UniProt P42338). Put plainly: Kinase Glo Luminescent Kinase Assay (Kglo), assay B. The class given is biochemical. The conditions noted are these: read-out: Assay B PI3Kβ IC50.

PI 4-kinase beta, sequence (Q9UBF8 whole entry): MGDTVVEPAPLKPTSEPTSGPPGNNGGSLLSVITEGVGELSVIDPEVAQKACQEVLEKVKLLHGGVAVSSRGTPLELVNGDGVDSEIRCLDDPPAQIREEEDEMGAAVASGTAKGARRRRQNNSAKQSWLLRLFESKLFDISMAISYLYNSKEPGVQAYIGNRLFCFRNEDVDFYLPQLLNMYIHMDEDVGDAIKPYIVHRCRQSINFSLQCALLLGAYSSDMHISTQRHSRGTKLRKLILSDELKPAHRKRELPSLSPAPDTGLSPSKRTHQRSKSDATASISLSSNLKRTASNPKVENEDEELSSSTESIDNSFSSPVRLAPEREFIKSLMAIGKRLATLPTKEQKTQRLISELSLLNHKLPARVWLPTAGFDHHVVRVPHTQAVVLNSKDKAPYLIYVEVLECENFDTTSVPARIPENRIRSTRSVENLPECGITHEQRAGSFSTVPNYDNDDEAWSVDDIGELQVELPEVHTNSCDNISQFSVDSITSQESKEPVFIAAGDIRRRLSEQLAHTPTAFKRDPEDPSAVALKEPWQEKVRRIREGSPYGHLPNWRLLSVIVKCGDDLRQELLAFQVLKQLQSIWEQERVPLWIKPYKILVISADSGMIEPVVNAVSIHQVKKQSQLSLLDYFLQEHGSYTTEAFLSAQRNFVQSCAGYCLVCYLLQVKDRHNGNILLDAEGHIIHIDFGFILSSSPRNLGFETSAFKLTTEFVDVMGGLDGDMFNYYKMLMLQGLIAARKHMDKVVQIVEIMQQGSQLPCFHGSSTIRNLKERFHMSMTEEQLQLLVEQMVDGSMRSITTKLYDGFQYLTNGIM
Vps34, sequence (Q8NEB9 whole entry, species assumed): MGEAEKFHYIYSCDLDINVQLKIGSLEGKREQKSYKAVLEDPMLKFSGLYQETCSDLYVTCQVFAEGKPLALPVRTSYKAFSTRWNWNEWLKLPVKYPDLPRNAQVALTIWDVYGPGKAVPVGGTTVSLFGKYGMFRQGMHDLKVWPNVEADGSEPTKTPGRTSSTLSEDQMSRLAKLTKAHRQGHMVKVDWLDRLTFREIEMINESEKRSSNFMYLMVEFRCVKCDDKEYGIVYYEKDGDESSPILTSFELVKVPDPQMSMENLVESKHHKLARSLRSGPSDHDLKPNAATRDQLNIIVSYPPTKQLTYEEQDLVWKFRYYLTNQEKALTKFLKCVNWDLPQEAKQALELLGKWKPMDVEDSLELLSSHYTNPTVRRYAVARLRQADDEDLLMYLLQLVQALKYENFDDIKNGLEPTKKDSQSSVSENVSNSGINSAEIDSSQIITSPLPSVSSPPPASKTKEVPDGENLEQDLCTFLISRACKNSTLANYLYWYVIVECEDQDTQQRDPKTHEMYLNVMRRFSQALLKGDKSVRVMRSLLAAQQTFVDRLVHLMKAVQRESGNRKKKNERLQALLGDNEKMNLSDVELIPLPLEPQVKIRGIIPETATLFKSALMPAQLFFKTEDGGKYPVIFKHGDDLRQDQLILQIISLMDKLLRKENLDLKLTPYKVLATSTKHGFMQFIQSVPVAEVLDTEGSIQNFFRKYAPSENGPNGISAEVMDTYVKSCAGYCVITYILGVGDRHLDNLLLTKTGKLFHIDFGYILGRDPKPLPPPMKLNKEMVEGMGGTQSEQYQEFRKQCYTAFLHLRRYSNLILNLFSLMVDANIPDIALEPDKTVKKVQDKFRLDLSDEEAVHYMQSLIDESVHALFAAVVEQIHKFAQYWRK
PI 3-kinase beta, sequence (P42338 whole entry): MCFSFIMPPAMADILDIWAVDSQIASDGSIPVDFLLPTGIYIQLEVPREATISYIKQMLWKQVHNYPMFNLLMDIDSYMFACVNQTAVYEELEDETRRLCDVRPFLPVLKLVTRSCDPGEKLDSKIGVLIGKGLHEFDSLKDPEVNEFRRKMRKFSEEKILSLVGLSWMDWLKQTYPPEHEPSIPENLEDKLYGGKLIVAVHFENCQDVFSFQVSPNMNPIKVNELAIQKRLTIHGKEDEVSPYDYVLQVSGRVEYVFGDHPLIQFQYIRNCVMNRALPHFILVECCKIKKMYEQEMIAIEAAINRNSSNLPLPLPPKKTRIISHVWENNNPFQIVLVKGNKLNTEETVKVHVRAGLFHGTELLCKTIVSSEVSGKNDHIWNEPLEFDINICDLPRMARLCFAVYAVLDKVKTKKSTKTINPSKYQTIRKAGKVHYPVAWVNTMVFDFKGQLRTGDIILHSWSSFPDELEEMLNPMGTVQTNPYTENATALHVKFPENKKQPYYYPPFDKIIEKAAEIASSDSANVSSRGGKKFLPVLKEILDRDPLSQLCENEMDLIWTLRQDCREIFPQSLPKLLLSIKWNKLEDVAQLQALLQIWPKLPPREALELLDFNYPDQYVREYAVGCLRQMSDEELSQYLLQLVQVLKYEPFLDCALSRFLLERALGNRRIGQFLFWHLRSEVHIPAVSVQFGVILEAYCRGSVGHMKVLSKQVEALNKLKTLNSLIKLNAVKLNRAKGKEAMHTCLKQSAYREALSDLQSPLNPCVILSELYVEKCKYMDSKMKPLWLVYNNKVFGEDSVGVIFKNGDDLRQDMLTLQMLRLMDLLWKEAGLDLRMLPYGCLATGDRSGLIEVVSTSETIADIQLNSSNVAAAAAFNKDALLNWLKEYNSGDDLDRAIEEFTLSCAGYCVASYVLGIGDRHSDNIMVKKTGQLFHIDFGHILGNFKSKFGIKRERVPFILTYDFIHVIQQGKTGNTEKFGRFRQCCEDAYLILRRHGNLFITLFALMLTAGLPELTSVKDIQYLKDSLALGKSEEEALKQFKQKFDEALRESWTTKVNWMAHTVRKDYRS
PI 3-kinase beta, sequence (P27986 461-568 partner): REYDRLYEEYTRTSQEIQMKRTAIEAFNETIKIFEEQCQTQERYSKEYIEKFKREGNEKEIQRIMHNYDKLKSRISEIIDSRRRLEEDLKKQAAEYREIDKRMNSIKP
PI 3-kinase alpha, sequence (P42336 whole entry): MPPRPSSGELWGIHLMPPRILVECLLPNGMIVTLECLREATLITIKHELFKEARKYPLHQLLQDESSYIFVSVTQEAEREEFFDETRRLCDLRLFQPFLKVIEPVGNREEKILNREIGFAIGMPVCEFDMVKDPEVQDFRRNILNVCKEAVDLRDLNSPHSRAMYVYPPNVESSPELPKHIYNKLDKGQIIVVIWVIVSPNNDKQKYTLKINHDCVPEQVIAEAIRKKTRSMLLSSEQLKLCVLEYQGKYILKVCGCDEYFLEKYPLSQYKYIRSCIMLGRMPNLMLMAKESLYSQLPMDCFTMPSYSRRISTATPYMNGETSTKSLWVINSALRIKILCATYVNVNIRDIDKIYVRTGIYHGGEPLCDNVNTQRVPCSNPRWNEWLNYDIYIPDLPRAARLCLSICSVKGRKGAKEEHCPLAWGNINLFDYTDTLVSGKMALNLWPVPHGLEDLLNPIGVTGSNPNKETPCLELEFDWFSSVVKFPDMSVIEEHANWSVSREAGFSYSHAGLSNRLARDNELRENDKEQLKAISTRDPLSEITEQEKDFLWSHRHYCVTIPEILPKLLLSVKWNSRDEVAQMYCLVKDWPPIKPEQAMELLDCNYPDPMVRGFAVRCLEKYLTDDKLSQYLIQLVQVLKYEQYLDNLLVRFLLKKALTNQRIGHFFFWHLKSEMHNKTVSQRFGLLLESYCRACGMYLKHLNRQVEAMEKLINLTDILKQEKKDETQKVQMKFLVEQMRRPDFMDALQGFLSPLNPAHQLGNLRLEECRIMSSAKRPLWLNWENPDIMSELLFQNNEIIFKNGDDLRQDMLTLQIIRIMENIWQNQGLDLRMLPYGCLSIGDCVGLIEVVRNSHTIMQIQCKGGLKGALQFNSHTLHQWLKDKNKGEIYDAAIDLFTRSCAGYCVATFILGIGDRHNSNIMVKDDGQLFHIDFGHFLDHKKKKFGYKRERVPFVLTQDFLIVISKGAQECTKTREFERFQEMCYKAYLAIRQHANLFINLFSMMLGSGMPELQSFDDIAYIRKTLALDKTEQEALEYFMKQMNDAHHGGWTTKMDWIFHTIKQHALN
PI 3-kinase delta, sequence (O00329 whole entry): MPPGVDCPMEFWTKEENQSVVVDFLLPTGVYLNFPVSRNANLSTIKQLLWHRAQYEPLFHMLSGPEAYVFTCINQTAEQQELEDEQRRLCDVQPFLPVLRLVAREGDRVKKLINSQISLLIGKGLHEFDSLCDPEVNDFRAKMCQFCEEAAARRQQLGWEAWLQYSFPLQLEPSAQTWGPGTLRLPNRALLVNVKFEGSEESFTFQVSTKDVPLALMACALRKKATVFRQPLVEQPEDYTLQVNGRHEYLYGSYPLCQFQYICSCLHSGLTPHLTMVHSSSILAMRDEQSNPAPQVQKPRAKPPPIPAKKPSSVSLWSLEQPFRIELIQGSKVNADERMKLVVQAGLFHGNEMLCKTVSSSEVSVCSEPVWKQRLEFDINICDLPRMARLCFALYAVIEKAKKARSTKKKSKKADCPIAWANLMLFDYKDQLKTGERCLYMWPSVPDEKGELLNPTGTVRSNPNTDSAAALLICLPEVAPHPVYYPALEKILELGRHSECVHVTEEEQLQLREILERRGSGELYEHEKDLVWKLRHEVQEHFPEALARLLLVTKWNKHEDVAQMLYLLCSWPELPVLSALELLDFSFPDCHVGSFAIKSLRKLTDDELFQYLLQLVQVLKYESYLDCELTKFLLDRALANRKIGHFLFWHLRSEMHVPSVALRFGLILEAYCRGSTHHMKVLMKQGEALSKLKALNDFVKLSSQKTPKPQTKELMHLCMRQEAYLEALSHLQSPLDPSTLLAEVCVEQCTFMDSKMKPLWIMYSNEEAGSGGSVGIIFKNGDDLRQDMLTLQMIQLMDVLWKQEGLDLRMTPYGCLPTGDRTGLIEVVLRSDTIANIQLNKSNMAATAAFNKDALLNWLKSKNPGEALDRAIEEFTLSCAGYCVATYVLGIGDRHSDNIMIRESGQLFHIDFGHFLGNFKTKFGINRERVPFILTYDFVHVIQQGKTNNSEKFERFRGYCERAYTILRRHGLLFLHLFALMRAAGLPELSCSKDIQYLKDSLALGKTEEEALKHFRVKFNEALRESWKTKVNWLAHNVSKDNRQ
PI 3-kinase delta, sequence (P27986 461-568 partner): as the sequence (P27986 461-568 partner) above

In the case of `Cc1ccc(S(=O)(=O)N[C@@H]2CNC[C@H]2O)cc1-c1cnc(N)c(-n2cncn2)n1` [Example 127.60, 3-(5-amino-6-(1H-1,2,4-triazol-1-yl)pyrazin-2-yl)-N-((3R,4R)-4-hydroxypyrrolidin-3-yl)-4-methylbenzenesulfonamide trifluoroacetic acid salt], the IC50 in assay [1] is 140 nM; in assay [2], 3300 nM; in assay [3], more than 10000 nM; in assay [4], more than 10000 nM; in assay [5] it was 960 nM; in assay [6], 2400 nM. Moreover, in assay [7], the IC50 was 730 nM.
Take `Cc1cc(-c2nc(-c3cc(S(=O)(=O)NCC4(O)CCCCC4)ccc3C)cnc2N)ccn1` [Example 129.4, 3-(5-amino-6-(2-methylpyridin-4-yl)pyrazin-2-yl)-N-((1-hydroxycyclohexyl)methyl)-4-methylbenzenesulfonamide]: the IC50 was 69 nM in assay [1]; more than 9100 nM in assay [2]; 5000 nM in assay [3]; more than 9100 nM in assay [4]; 190 nM in assay [5]; 430 nM in assay [6] (read-out: Assay F PI3Kδ IC50). Also, the IC50 in assay [7] is more than 9100 nM.
On to `CC[C@@H](CO)NS(=O)(=O)c1ccc(C)c(-c2cnc(N)c(-c3ccnc(C)c3)n2)c1` [Example 129.6, (S)-3-(5-amino-6-(2-methylpyridin-4-yl)pyrazin-2-yl)-N-(1-hydroxybutan-2-yl)-4-methylbenzenesulfonamide], for which the IC50 in assay [1] is 270 nM; in assay [2], more than 9100 nM; in assay [3] it was more than 9100 nM; in assay [4], more than 9100 nM; in assay [5], 740 nM; in assay [6] (read-out: Assay F PI3Kδ IC50), 2800 nM. Moreover, in assay [7], the IC50 is more than 9100 nM.
Consider `CC[C@H](CO)NS(=O)(=O)c1ccc(C)c(-c2cnc(N)c(-c3ccnc(C)c3)n2)c1` [Example 129.7, (R)-3-(5-amino-6-(2-methylpyridin-4-yl)pyrazin-2-yl)-N-(1-hydroxybutan-2-yl)-4-methylbenzenesulfonamide], for which the IC50 in assay [1] is 270 nM; in assay [2], more than 9100 nM; in assay [3], 7800 nM; in assay [4] it was more than 9100 nM; in assay [5] it was 900 nM; in assay [6] (read-out: Assay F PI3Kδ IC50), 3300 nM. Besides, the IC50 in assay [7] was more than 9100 nM.
`Cc1cc(-c2nc(-c3cc(S(=O)(=O)NC4CCOCC4)ccc3C)cnc2N)ccn1` [Example 129.10, 3-(5-amino-6-(2-methylpyridin-4-yl)pyrazin-2-yl)-4-methyl-N-(tetrahydro-2H-pyran-4-yl)benzenesulfonamide]: the IC50 in assay [1] was 27 nM; in assay [2], 6200 nM; in assay [3], more than 9100 nM; in assay [4], more than 9100 nM; in assay [5], 550 nM; in assay [6] (read-out: Assay F PI3Kδ IC50), 940 nM. For the same compound, the IC50 in assay [7] is more than 9100 nM.
`COC(C)(C)CNS(=O)(=O)c1ccc(C)c(-c2cnc(N)c(-c3ccnc(C)c3)n2)c1` [Example 129.15, 3-(5-amino-6-(2-methylpyridin-4-yl)pyrazin-2-yl)-N-(2-methoxy-2-methylpropyl)-4-methylbenzenesulfonamide]: the IC50 in assay [1] was 240 nM; in assay [2] it was more than 9100 nM; in assay [3] it was more than 9100 nM; in assay [4], more than 9100 nM; in assay [5] it was 1900 nM; in assay [6] (read-out: Assay F PI3Kδ IC50), 2100 nM. Further, in assay [7], the IC50 was more than 9100 nM.
Take `Cc1cc(-c2nc(-c3cc(S(=O)(=O)NCC4CCCCO4)ccc3C)cnc2N)ccn1` (centres unmarked) [Example 129.16, 3-(5-amino-6-(2-methylpyridin-4-yl)pyrazin-2-yl)-4-methyl-N-((tetrahydro-2H-pyran-2-yl)methyl)benzenesulfonamide]: the IC50 in assay [1] was 66 nM; in assay [2] it was more than 9100 nM; in assay [3] it was more than 9100 nM; in assay [4], more than 9100 nM; in assay [5], 630 nM; in assay [6] (read-out: Assay F PI3Kδ IC50) it was 2000 nM. For the same compound, the IC50 in assay [7] was more than 9100 nM.
In the case of `Cc1cc(-c2nc(-c3cc(S(=O)(=O)NC[C@@](C)(O)C(F)(F)F)ccc3C)cnc2N)ccn1` [Example 129.20, (R)-3-(5-amino-6-(2-methylpyridin-4-yl)pyrazin-2-yl)-4-methyl-N-(3,3,3-trifluoro-2-hydroxy-2-methylpropyl)benzenesulfonamide], the IC50 is 110 nM in assay [1]; more than 9100 nM in assay [2]; more than 9100 nM in assay [3]; more than 9100 nM in assay [4]; 320 nM in assay [5]; 290 nM in assay [6] (read-out: Assay F PI3Kδ IC50). In addition, in assay [7], the IC50 came out at 8500 nM.
On to `Cc1cc(-c2nc(-c3cc(S(=O)(=O)NC4CCN(C)CC4)ccc3C)cnc2N)ccn1` [Example 129.22, 3-(5-amino-6-(2-methylpyridin-4-yl)pyrazin-2-yl)-4-methyl-N-(1-methylpiperidin-4-yl)benzenesulfonamide], for which the IC50 is 280 nM in assay [1]; more than 9100 nM in assay [2]; more than 9100 nM in assay [3]; more than 9100 nM in assay [4]; 1500 nM in assay [5]; 7500 nM in assay [6] (read-out: Assay F PI3Kδ IC50). For the same compound, the IC50 in assay [7] is more than 9100 nM.
In the case of `CCN(CC)CCCNS(=O)(=O)c1ccc(C)c(-c2cnc(N)c(-c3ccnc(C)c3)n2)c1` [Example 129.23, 3-(5-amino-6-(2-methylpyridin-4-yl)pyrazin-2-yl)-N-(3-(diethylamino)propyl)-4-methylbenzenesulfonamide], the IC50 in assay [1] is 380 nM; in assay [2] it was more than 9100 nM; in assay [3], more than 9100 nM; in assay [4], more than 9100 nM; in assay [5], 2800 nM; in assay [6] (read-out: Assay F PI3Kδ IC50) it was 1900 nM. Also, the IC50 in assay [7] is 3300 nM.
With `Cc1cc(-c2nc(-c3cc(S(=O)(=O)NCCN(C)C)ccc3C)cnc2N)ccn1` [Example 129.26, 3-(5-amino-6-(2-methylpyridin-4-yl)pyrazin-2-yl)-N-(2-(dimethylamino)ethyl)-4-methylbenzenesulfonamide], the IC50 is 590 nM in assay [1]; more than 9100 nM in assay [2]; more than 9100 nM in assay [3]; more than 9100 nM in assay [4]; 1600 nM in assay [5]; 1600 nM in assay [6] (read-out: Assay F PI3Kδ IC50). The IC50 in assay [7] was 1700 nM.
On to `Cc1cc(-c2nc(-c3cc(S(=O)(=O)NCCN4CCCC4)ccc3C)cnc2N)ccn1` [Example 129.27, 3-(5-amino-6-(2-methylpyridin-4-yl)pyrazin-2-yl)-4-methyl-N-(2-(pyrrolidin-1-yl)ethyl)benzenesulfonamide], for which the IC50 in assay [1] was 760 nM; in assay [2], more than 9100 nM; in assay [3], more than 9100 nM; in assay [4], more than 9100 nM; in assay [5], 9000 nM; in assay [6] (read-out: Assay F PI3Kδ IC50), 2100 nM. Also, the IC50 in assay [7] was more than 9100 nM.
For the compound `Cc1cc(-c2nc(-c3cc(S(=O)(=O)NCC4CCN(C)C4)ccc3C)cnc2N)ccn1` (centres unmarked) [Example 129.30, 3-(5-amino-6-(2-methylpyridin-4-yl)pyrazin-2-yl)-4-methyl-N-((1-methylpyrrolidin-3-yl)methyl)benzenesulfonamide], the IC50 is 41 nM in assay [1]; more than 9100 nM in assay [2]; more than 9100 nM in assay [3]; more than 9100 nM in assay [4]; 5400 nM in assay [5]; 1200 nM in assay [6] (read-out: Assay F PI3Kδ IC50). For the same compound, in assay [7], the IC50 is more than 9100 nM.
`Cc1cc(-c2nc(-c3cc(S(=O)(=O)NCC4(C(N)=O)CCOCC4)ccc3C)cnc2N)ccn1` [Example 129.31, 4-((3-(5-amino-6-(2-methylpyridin-4-yl)pyrazin-2-yl)-4-methylphenylsulfonamido)methyl)tetrahydro-2H-pyran-4-carboxamide]: the IC50 in assay [1] was 120 nM; in assay [2], 6700 nM; in assay [3] it was more than 9100 nM; in assay [4], more than 9100 nM; in assay [5], 290 nM; in assay [6] (read-out: Assay F PI3Kδ IC50) it was 800 nM. Besides, the IC50 in assay [7] was 1800 nM.
`CNCCNS(=O)(=O)c1ccc(C)c(-c2cnc(N)c(-c3ccnc(C)c3)n2)c1` [Example 129.33, 3-(5-amino-6-(2-methylpyridin-4-yl)pyrazin-2-yl)-4-methyl-N-(2-(methylamino)ethyl)benzenesulfonamide]: the concentration for half-maximal inhibition (IC50) in assay [1] is 260 nM; in assay [2], more than 9100 nM; in assay [3], more than 9100 nM; in assay [4], more than 9100 nM; in assay [5], 2300 nM; in assay [6] (read-out: Assay F PI3Kδ IC50), 2000 nM. In assay [7], the IC50 is more than 9100 nM.
Consider `Cc1cc(-c2nc(-c3cc(S(=O)(=O)NCCN)ccc3C)cnc2N)ccn1` [Example 129.34, 3-(5-amino-6-(2-methylpyridin-4-yl)pyrazin-2-yl)-N-(2-aminoethyl)-4-methylbenzenesulfonamide], for which the IC50 is 110 nM in assay [1]; more than 9100 nM in assay [2]; more than 9100 nM in assay [3]; more than 9100 nM in assay [4]; 700 nM in assay [5]; 1200 nM in assay [6] (read-out: Assay F PI3Kδ IC50). In addition, the IC50 in assay [7] is more than 9100 nM.
For the compound `Cc1cc(-c2nc(-c3cc(S(=O)(=O)N4CC5(CNC5)C4)ccc3C)cnc2N)ccn1` [Example 129.37, 5-(5-(2,6-diazaspiro[3.3]heptan-2-ylsulfonyl)-2-methylphenyl)-3-(2-methylpyridin-4-yl)pyrazin-2-amine], the IC50 is 540 nM in assay [1]; 8300 nM in assay [2]; more than 9100 nM in assay [3]; more than 9100 nM in assay [4]; 1300 nM in assay [5]; 2800 nM in assay [6] (read-out: Assay F PI3Kδ IC50). For the same compound, the IC50 in assay [7] was more than 9100 nM.
